What was measured:
[1] = tested on: histone acetylation (H3K18ac) in HCT116 cells; assay: Drug washout, histone acetylation by Western blotting; format: cell-based; details: 6 h pulse then washout, time counted from drug addition
[2] = tested on: HCT116 cells; assay: Cell viability assay; format: cell-based; details: Homo sapiens, HCT-116, 96 h, read-out: IC50 for killing HCT116 cells
[3] = tested on: acetylated histones in HCT116 cells; assay: Western blotting of histone acetylation after 1 h exposure; format: cell-based; details: TSA 0.2 μM, other compounds 2 μM
[4] = tested on: MDA-MB-231 cells; assay: Cell cycle analysis by FACS; format: cell-based; details: MDA-MB-231, 24 h exposure
[5] = tested on: HepG2 cells; assay: Cell viability assay; format: cell-based; details: CellTiter-Glo, 96 h
[6] = tested on: α-tubulin acetylation in HCT116 and A549 cells; assay: Western blotting of α-tubulin acetylation; format: cell-based; details: TSA 0.2 μM, UF010 2 μM, 1 h before lysis
[7] = tested on: MDA-MB-231 cells; assay: Wound healing cell migration assay; format: cell-based; details: MDA-MB-231 monolayer scratch; UF010 at 1 μM
[8] = biological target: HDAC2 (Homo sapiens, UniProt Q92769); assay: HDAC2 inhibition kinetics; format: biochemical; details: purified HDAC2
[9] = tested on: HDACs in HCT116; format: cell-based; details: HCT116 (Fig. 2C) and HepG2 cells (data not shown)
[10] = tested on: Sin3 complex; assay: Inhibition of the Sin3 complex; details: data not shown
[11] = bovine, serum
[12] = tested on: MDA-MB-231 cells; assay: Cell viability assay; format: cell-based; details: read-out: IC50 viability MDA-MB-231, CellTiter-Glo, 96 h (Fig. 3C)

HDAC2, sequence (Q92769 whole entry): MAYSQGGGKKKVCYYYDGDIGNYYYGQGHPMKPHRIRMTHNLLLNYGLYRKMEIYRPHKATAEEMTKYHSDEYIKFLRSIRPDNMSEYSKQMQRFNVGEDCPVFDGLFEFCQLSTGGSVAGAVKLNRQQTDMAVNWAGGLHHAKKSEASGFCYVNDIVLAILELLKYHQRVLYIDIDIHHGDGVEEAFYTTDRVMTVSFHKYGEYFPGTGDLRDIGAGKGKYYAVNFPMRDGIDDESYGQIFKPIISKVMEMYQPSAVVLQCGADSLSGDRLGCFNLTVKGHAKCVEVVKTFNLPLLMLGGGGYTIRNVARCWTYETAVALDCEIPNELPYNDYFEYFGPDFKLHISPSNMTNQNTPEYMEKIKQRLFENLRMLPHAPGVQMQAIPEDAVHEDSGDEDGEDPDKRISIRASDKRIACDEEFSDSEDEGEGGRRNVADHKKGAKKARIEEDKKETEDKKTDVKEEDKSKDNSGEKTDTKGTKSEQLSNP

Compound	time up to which induced histone acetylation was maintained [1]	induction of histone acetylation [3]	effect on cell cycle progression [4]	effect on α-tubulin acetylation [6]	further results
Nc1ccccc1NC(=O)c1ccc(CNC(=O)OCc2cccnc2)cc1 [MS-275, entinostat]	at least 48 h	only slightly induced acetylation at several sites but failed to induce acetylation at most sites			IC50 [2]: 2.1 µM
C/C=C1\NC(=O)[C@H]2CSSCC/C=C/[C@H](CC(=O)N[C@H](C(C)C)C(=O)N2)OC(=O)[C@H](C(C)C)NC1=O [Romi-depsin, romidepsin]	up to 24 h				
O=C(CCCCCCC(=O)Nc1ccccc1)NO [SAHA, vorinostat, reference compound]			inhibited G1/S progression at 1 μM but induced a strong G2/M block at 10 μM		
CCCCNNC(=O)c1ccc(N(C)C)cc1 [SR-3208]					fold more potent than UF010 in eliciting cytotoxicity [5]: 3 fold
CC(/C=C/C(=O)NO)=C\[C@@H](C)C(=O)c1ccc(N(C)C)cc1 [TSA, trichostatin A, reference compound]		strongly induced acetylation at some sites but weakly at other sites		dramatically increased	
CCCCNNC(=O)c1ccc(Br)cc1 [UF010]	up to 96 h	consistently induced the accumulation of acetylated histones at all sites	mainly blocked G1/S transition	had no effect	effect on cell migration [7]: markedly slowed migration; mechanism of HDAC2 inhibition vs. substrate [8]: competitive inhibitor; fold more potent than MS-275 against HDACs in cells [9]: about 5 fold; inhibition of the Sin3 complex [10]: can inhibit; half-life in cell culture medium [11]: 15.8 h; IC50 [12]: 29.1 µM
